Experimental data reported in PMC6337391 (Molecules, 2019).
Where two headings read alike, the source gives them in different places.

Columns and labels:
[1] = Reducing activity with the stable radical DPPH
Procedure, shortened: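 DPPH (final 0.05 mM) in absolute ethanol mixed with an equal volume of compound at 0.05 or 0.1 mM, ethanol as control. Absorbance at 517 nm read at room temperature after 20 and 60 min, expressed as reducing activity RA%.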

soybean lipoxygenase = biological target: T1, soybean lipoxygenase (Glycine max, UniProt P08170); experiment: biochemical; type: biochemical
T1 sequence (P08170 1-839): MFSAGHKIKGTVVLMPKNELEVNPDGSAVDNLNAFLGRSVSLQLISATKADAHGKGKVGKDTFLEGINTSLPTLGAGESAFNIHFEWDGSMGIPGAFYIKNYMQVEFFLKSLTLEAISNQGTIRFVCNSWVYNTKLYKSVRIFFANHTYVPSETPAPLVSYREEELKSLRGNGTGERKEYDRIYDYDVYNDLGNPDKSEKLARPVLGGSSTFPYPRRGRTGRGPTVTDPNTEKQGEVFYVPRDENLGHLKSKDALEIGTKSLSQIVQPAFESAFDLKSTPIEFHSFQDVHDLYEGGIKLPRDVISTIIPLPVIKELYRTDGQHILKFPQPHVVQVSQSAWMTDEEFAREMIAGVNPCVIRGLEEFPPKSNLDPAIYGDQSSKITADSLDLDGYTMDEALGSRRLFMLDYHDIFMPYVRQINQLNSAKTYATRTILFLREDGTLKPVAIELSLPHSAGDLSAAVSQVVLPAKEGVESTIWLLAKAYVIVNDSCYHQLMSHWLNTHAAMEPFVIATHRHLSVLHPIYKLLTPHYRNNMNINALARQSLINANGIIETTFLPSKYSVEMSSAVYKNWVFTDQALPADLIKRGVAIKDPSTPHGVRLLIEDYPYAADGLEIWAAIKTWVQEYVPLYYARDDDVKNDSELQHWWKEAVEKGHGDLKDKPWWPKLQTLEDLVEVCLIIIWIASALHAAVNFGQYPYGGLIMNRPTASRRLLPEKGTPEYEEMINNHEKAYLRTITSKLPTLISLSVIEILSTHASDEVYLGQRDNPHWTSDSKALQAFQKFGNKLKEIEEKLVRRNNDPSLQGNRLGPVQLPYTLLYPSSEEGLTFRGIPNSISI
Procedure, shortened: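 Soybean LOX (enzyme solution 1/9 × 10^−4 w/v in saline) incubated at room temperature with sodium linoleate ([…]) in tris buffer pH 9. Compounds added from DMSO stocks. IC50 derived from several concentrations.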

Aβ40 = biological target: T2, Aβ40 (Homo sapiens, UniProt P05067); experiment: Circular dichroism study of Aβ40 aggregation; conditions: 50 µM compound, 50 µM Aβ40 (1:1), PB pH 7.33, 33 °C, 40 days
T2 construct: Amyloid peptide Aβ40 was purchased from AnaSpec Co; purchased AnaSpec Co. (Fremont, CA, USA)
T2 sequence (P05067 672-711 limits assumed): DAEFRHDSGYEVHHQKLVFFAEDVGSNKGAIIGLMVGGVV
Source text: The pathogenesis of Alzheimer’s disease (AD) is widely associated with the aggregation of β-amyloid peptide (Aβ) either to soluble oligomers or to higher-order polymeric insoluble fibrils. As a result, one of the main therapeutic strategies against AD targets the aggregation process of Aβ, and a great number of small molecules are being investigated for their potential to intervene in the assembly of Aβ and inhibit its neurotoxicity in vitro and in vivo [64]. Circular dichroism (CD) spectroscopy is commonly used to probe the secondary structure of polypeptides and to monitor conformational changes and interactions of polypeptides with small molecules. The typical aggregation process of Aβ produces characteristic CD spectra over time that reflect the conformational changes that occur as the random coil monomers are converted into β-sheet oligomers, and then gradually to larger β-sheet formations that finally produce amyloid fibrils. CD is, therefore, a valuable tool to monitor the aggregation process of Aβ and to study the effect of potential aggregation inhibitors. To further investigate the pleiotropic effects of chalcones against AD, selected compounds from our library, were subjected to CD studies in order to evaluate their potential to interfere with the aggregation process of Aβ40. […] The aggregation spectra of plain Aβ40 show at day 0 the typical random coil peak (negative maximum at 198 nm) the intensity of which gradually decreases as the peptide forms β–sheet structures (negative maximum at 222 nm, day 15) that further aggregate to higher order polymeric fibrils. The precipitation of the insoluble fibrils from solution eventually results in the loss of CD signal (days 30 and 40). […] In view of the above results, chalcone derivatives bearing a three-carbon chain linker, specifically c2, c3, and c4, were subsequently studied in order to assess the effect of further derivatization and the presence of the chalcone moiety in the structure. […] Overall, our CD study identified three new structures capable of interfering with the aggregation process of Aβ, out of which compounds c2 and c4 display additional protective actions against AD and add to the pleiotropic profile of the chalcone derivatives.
Preparation of Aβ stocks and solutions. Amyloid peptide Aβ40 was purchased from AnaSpec Co. (Fremont, CA, USA) (>95% pure). Aβ40 was gently dissolved without vortexing in Type 1 (Milli-Q) water to a final concentration of 100 μM. Solutions of Aβ in phosphate buffer (PB, 10 mM, pH 7.33) were prepared by adding equal volumes of PB to aliquots of the aqueous solution stock to achieve final concentration of 50 µM. The proper amount of the compounds c2, c3, c4, di, dii, and dvi were added to the Aβ solutions to achieve concentration of 50 μM. The secondary structural changes of Aβ were monitored for 40 days by CD. During this period, the amyloid peptide solutions were kept at an incubator at 33 °C under quiescent conditions.
Circular dichroism measurements. CD spectra were recorded on a JASCO J-715 spectropolarimeter (Jasco Co., Tokyo, Japan), at 33 °C in the range of 190–260 nm with a 1 mm path length quartz cuvette. Each spectrum was the average of three scans at a speed of 100 nm·min^−1 and a resolution of 0.5 nm. Three independent experiments were run for each condition and in each case solutions of plain Aβ were run as control (Figure 8). The analysis of the CD data was performed using the OriginPro 9 program.

Row | SMILES | RA% 100 μM 20 min [1] | RA% 100 μM 60 min [1] | % LOX Inhb. @ 100 μM (soybean lipoxygenase; soybean LOX) [%] | IC50 (soybean lipoxygenase; soybean LOX, read-out: LOX IC50) [µM] | IC50 (soybean lipoxygenase) [µM] | effect on the aggregation process of Aβ40 (CD spectra) (Aβ40)
1 | O=C(/C=C/c1cccc2ccccc12)c1ccccc1O [b4, (E)-1-(2-hydroxyphenyl)-3-(naphthalen-1-yl) prop-2-en-1-one] | 30% | 20% | 82 | 65 | – | –
2 | O=C(/C=C/C=C/c1ccc([N+](=O)[O-])cc1)c1ccc(OCCCOc2ccc(C(=O)/C=C/C=C/c3ccc([N+](=O)[O-])cc3)cc2)cc1 [c11, (2E,2′E,4E,4′E)-1,1′-((propane-1,3-diylbis(oxy))bis(4,1-phenylene))bis(5-(4-nitrophenyl)penta-2,4-dien-1-one)] | No | no | 95 | – | 50 | –
3 | CC(=O)c1ccc(OCCOc2ccc(C(C)=O)cc2)cc1 [di, 1,1′-((ethane-1,2-diylbis(oxy))bis(4,1-phenylene))diethanone] | – | – | 12 | – | – | did not significantly change the fibrillization course of Aβ40
4 | CC(=O)c1ccc(OCCCCCCCOc2ccc(C(C)=O)cc2)cc1 [dvi, 1,1′-((heptane-1,7-diylbis(oxy))bis-(4,1-phenylene)) diethanone] | – | – | 17 | – | – | did not significantly change the fibrillization course of Aβ40
